According to ChEMBL document CHEMBL1124646, “Sulfur-containing 1,3-dialkylxanthine derivatives as selective antagonists at A1-adenosine receptors” (J Med Chem, 1989):

Assays:
[1] = target: Adenosine receptors; A1 & A2 (Rattus norvegicus, UniProt P29276+P25099+P30543); assay: Inhibitory selectivity for A1 receptor in rat striatal membranes and Adenosine A1 receptor in rat cortical membranes; assay type: cell membranes, Striatum, Membrane
Adenosine A2 receptor [2] = target: T1, Adenosine A2 receptor (Rattus norvegicus, UniProt P29276+P30543)
Description: Inhibition of binding of [3H]5'-(N-ethylcarbamoyl)-adenosine to adenosine A2 receptor in rat striatal membranes

Adenosine receptor A1 [3] = target: T2, Adenosine receptor A1 (Rattus norvegicus, UniProt P25099); assay: Inhibition of binding of 1 nM [3H]N-6-(phenylisopropyl)adenosine to adenosine A1 receptor in rat cortical membranes; assay type: cell membranes, Membrane
T2 sequence (P25099 whole entry): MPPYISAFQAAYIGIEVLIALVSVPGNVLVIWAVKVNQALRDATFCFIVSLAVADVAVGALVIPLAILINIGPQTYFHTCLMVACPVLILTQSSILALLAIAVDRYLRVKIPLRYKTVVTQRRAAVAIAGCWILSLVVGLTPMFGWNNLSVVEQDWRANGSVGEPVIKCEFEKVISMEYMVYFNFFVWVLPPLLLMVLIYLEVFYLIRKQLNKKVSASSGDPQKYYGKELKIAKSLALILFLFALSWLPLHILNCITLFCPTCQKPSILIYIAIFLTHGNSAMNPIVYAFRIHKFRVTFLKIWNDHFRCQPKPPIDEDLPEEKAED

[4] = target: Adenosine receptors; A1 & A2 (Rattus norvegicus) (UniProt P29276+P25099+P30543); assay: Inhibitory selectivity for A2 receptor in rat striatal membranes and A1 receptor in rat cortical membranes; assay type: cell membranes; details: Striatum, Membrane
Adenosine A2 receptor [5] = target: T1, Adenosine A2 receptor; assay type: cell membranes, Membrane
Adenosine receptor A1 [6] = target: T2, Adenosine receptor A1; assay: Inhibition of 1 nM [3H]N-6-(phenylisopropyl)adenosine binding to A1 receptors in rat cortical membranes; assay type: cell membranes, Membrane
[7] = target: Adenosine receptor A1 (Rattus norvegicus); assay: Inhibitory selectivity for A1 receptor in rat striatal membranes and Adenosine A1 receptor in rat cortical membranes
Adenosine receptor A1 [8] = target: T2, Adenosine receptor A1; assay: Inhibition of 1 nM [3H]N-6-(phenylisopropyl)adenosine binding to adenosine A1 receptors in rat cortical membranes; assay type: cell membranes, Membrane

For `CCCn1c(=O)c2nc(-c3ccc(OCC(=O)NCCNC(=O)C(N)Cc4cccs4)cc3)[nH]c2n(CCC)c1=O.O=C(O)C(F)(F)F` (stereo not drawn), the Ki [1] was 1.3 nM.
`CCCn1c(=O)c2nc(-c3ccc(OCC(=O)NCCNC(=O)C(CCCCNC(=O)OCc4ccccc4)NC(=O)OC(C)(C)C)cc3)[nH]c2n(CCC)c1=S` (stereo not drawn) gave a Ki (Adenosine A2 receptor [2]) of 870 nM and a Ki (Adenosine receptor A1 [3]) of 84 nM.
For `Cn1c(=S)c2nc(C3CCCC3)[nH]c2n(C)c1=S`, the Ratio [4] was 285 and the Ki (Adenosine A2 receptor [5]) was 11500 nM.
`Cn1c(=S)c2nc(C3CCCC3)[nH]c2n(C)c1=O` gave a Ratio [4] of 44.4 and a Ki (Adenosine A2 receptor [5]) of 8980 nM.
Molecule `CCCn1c(=O)c2nc(-c3ccc(OCC(=O)NCCN(C)C)cc3)[nH]c2n(CCC)c1=S` has a Ki (Adenosine A2 receptor [2]) of 27.9 nM.
For `CCCn1c(=O)c2nc(-c3ccc(OCC(=O)OCC)cc3)[nH]c2n(CCC)c1=O`, the Ki (Adenosine A2 receptor [2]) was greater than 5000 nM.
`CCCn1c(=O)c2nc(-c3ccc(OCC(=O)O)cc3)[nH]c2n(CCC)c1=S` was tested, and the Ki (Adenosine A2 receptor [2]) was 315 nM.
For `CCCn1c(=O)c2[nH]c(-c3ccc(OCC(=O)NCCNC(=O)[C@@H](Cc4cccs4)NC(=O)OC(C)(C)C)cc3)nc2n(CCC)c1=O`, the Ki (Adenosine receptor A1 [6]) was 17 nM.
For `CCCn1c(=S)c2nc(C3CCCC3)[nH]c2n(CCC)c1=S`, the Ratio [4] was 572 and the Ki (Adenosine A2 receptor [5]) was 2780 nM.
`CCCn1c(=O)c2nc(-c3ccc(OCC(=O)NCCN)cc3)[nH]c2n(CCC)c1=S` gave a Ki (Adenosine A2 receptor [2]) of 26.3 nM.
`CCCn1c(=O)c2nc(-c3ccccc3)[nH]c2n(CCC)c1=S` was tested, and the Ki (Adenosine A2 receptor [2]) was 422 nM and the Ki (Adenosine receptor A1 [3]) was 16.1 nM.
`Cn1c(=O)c2nc(-c3cccs3)[nH]c2n(C)c1=O` was tested, and the Ki (Adenosine A2 receptor [2]) was 1630 nM.
For `CCCn1c(=S)c2nc(C3CCCC3)[nH]c2n(CCC)c1=O`, the Ki (Adenosine A2 receptor [2]) was 3360 nM.
`Cn1c(=O)c2nc(-c3ccco3)[nH]c2n(C)c1=O` gave a Ki (Adenosine A2 receptor [2]) of 2780 nM and a Ki (Adenosine receptor A1 [3]) of 350 nM.
`CCCn1c(=O)c2nc(-c3ccco3)[nH]c2n(CCC)c1=O` gave a Ki (Adenosine A2 receptor [2]) of 640 nM and a Ki (Adenosine receptor A1 [3]) of 37 nM.
`Br.Br.CCCn1c(=O)c2nc(-c3ccc(OCC(=O)NCCNC(=O)C(N)CCCCN)cc3)[nH]c2n(CCC)c1=S` (stereo not drawn) showed a Ki (Adenosine A2 receptor [2]) of 46.8 nM and a Ki (Adenosine receptor A1 [3]) of 13 nM.
`CCCn1c(=O)c2[nH]c(-c3ccc(OCC(=O)NCCNC)cc3)nc2n(CCC)c1=O` was tested, and the Ki (Adenosine receptor A1 [3]) was 15.1 nM.
In the case of `CCCn1c(=O)c2nc(-c3ccc(OCC(=O)NCCNC(=O)CCCCCCC(=O)ON4C(=O)CCC4=O)cc3)[nH]c2n(CCC)c1=S`, the Ki [7] is reported as 33.5 nM.
`CCCn1c(=O)c2nc(-c3ccc(OCC(=O)OCC)cc3)[nH]c2n(CCC)c1=S` showed a Ki (Adenosine A2 receptor [2]) greater than 5000 nM.
`CCCn1c(=O)c2nc(-c3ccc(OCC(=O)NCCNC(=O)Cc4ccc(I)s4)cc3)[nH]c2n(CCC)c1=O` showed a Ratio [4] of 10.3 and a Ki (Adenosine A2 receptor [5]) of 116 nM.
`CCCn1c(=O)c2nc(-c3ccc(OCC(=O)NCCNC(=O)C(N)CCCCNC(=O)OCc4ccccc4)cc3)[nH]c2n(CCC)c1=S.O=C(O)C(F)(F)F` (stereo not drawn) gave a Ki (Adenosine receptor A1 [8]) of 6.8 nM, a Ratio [4] of 36 and a Ki (Adenosine A2 receptor [5]) of 322 nM.
Molecule `CCCn1c(=O)c2nc(-c3ccc(OCC(=O)NCCNC(=O)CCCCCCC(=O)NCc4cccs4)cc3)[nH]c2n(CCC)c1=O` has a Ratio [4] of 85 and a Ki (Adenosine A2 receptor [5]) of 630 nM.
With `CCCn1c(=O)c2nc(-c3ccco3)[nH]c2n(CCC)c1=S` the Ki (Adenosine A2 receptor [2]) was 594 nM and the Ki (Adenosine receptor A1 [3]) was 32 nM.
In the case of `CCCn1c(=O)c2nc(-c3ccc(OCC(=O)NCCNC(=O)C(N)CCCCNC(=O)OCc4ccccc4)cc3)[nH]c2n(CCC)c1=O.O=C(O)C(F)(F)F` (stereo not drawn), the Ki (Adenosine receptor A1 [8]) is reported as 6.4 nM, the Ratio [4] is reported as 30 and the Ki (Adenosine A2 receptor [5]) is reported as 191 nM.
`Br.Br.CCCn1c(=O)c2nc(-c3ccc(OCC(=O)NCCNC(=O)C(N)CCCCN)cc3)[nH]c2n(CCC)c1=O` (stereo not drawn) showed a Ki (Adenosine A2 receptor [2]) of 180 nM and a Ki (Adenosine receptor A1 [3]) of 0.87 nM.
`Cn1c(=O)c2nc(C3CCCC3)[nH]c2n(C)c1=S` was tested, and the Ki (Adenosine receptor A1 [8]) was 10.2 nM, the Ratio [4] was 136 and the Ki (Adenosine A2 receptor [5]) was 1390 nM.
Molecule `Cn1c(=O)c2nc(-c3cccs3)[nH]c2n(C)c1=S` has a Ki (Adenosine A2 receptor [2]) of 1740 nM.
`Cn1c(=O)c2nc(-c3ccccc3)[nH]c2n(C)c1=S` gave a Ki (Adenosine A2 receptor [2]) greater than 7000 nM and a Ki (Adenosine receptor A1 [3]) of 38 nM.
For `CCCn1c(=O)c2nc(-c3ccc(OCC(=O)NCCN(C)C)cc3)[nH]c2n(CCC)c1=O`, the Ki (Adenosine A2 receptor [2]) was 5.03 nM and the Ki (Adenosine receptor A1 [3]) was 2.8 nM.
`Cn1c(=S)c2nc(-c3ccccc3)[nH]c2n(C)c1=O` was tested, and the Ki (Adenosine A2 receptor [2]) was 11300 nM.
In the case of `CCCn1c(=O)c2nc(-c3cccs3)[nH]c2n(CCC)c1=O`, the Ki (Adenosine A2 receptor [2]) is reported as 381 nM.
`CCn1c(=S)c2nc(-c3ccccc3)[nH]c2n(CC)c1=O` showed a Ki (Adenosine A2 receptor [2]) of 3510 nM.
`Cn1c(=O)c2nc(-c3ccco3)[nH]c2n(C)c1=S` gave a Ki (Adenosine A2 receptor [2]) of 4450 nM and a Ki (Adenosine receptor A1 [3]) of 182 nM.
`CCCn1c(=O)c2nc(-c3ccc(OCC(=O)NCCNC(=O)Cc4cccs4)cc3)[nH]c2n(CCC)c1=O` was tested, and the Ki (Adenosine A2 receptor [2]) was 147 nM.
In the case of `CCCn1c(=O)c2nc(-c3ccc(OCC(=O)N(C)CCN(C)C)cc3)[nH]c2n(CCC)c1=S`, the Ki (Adenosine A2 receptor [2]) is reported as 24.5 nM.
With `CCCn1c(=O)c2nc(-c3ccsc3)[nH]c2n(CCC)c1=O` the Ki (Adenosine A2 receptor [2]) was 121 nM.
`Cn1c(=O)c2nc(-c3ccoc3)[nH]c2n(C)c1=O` showed a Ki (Adenosine A2 receptor [2]) of 984 nM and a Ki (Adenosine receptor A1 [3]) of 72.4 nM.
With `CCCn1c(=O)c2[nH]c(C3CCCC3)nc2n(CCC)c1=S` the Ki (Adenosine A2 receptor [2]) was 314 nM.
For `Cn1c(=O)c2nc(-c3ccsc3)[nH]c2n(C)c1=O`, the Ki (Adenosine A2 receptor [2]) was 841 nM.
For `CCCn1c(=O)c2nc(-c3cccs3)[nH]c2n(CCC)c1=S`, the Ki (Adenosine A2 receptor [2]) was greater than 5000 nM.
`CCCn1c(=O)c2[nH]c(-c3ccc(OCC(=O)NCCNC(=O)C(CCCCNC(=O)OCc4ccccc4)NC(=O)OC(C)(C)C)cc3)nc2n(CCC)c1=O` (stereo not drawn) was tested, and the Ki (Adenosine receptor A1 [6]) was 12 nM.
